Data published in ChEMBL document CHEMBL4879554, “Data for DCP probe GNE-2256” (2021).

Columns and labels:
[1] = molecular target: Receptor-type tyrosine-protein kinase FLT3 (Homo sapiens, UniProt P36888); test: NanoBRET assay (FLT3, SGC Frankfurt)
[2] = molecular target: Tyrosine-protein kinase JAK2 (Homo sapiens, UniProt O60674); test: NanoBRET assay (JAK2, SGC Frankfurt)
[3] = molecular target: Tyrosine-protein kinase JAK1 (Homo sapiens, UniProt P23458); test: NanoBRET assay (JAK1, SGC Frankfurt)
Chain of Tyrosine-protein kinase JAK1 (P23458 whole entry): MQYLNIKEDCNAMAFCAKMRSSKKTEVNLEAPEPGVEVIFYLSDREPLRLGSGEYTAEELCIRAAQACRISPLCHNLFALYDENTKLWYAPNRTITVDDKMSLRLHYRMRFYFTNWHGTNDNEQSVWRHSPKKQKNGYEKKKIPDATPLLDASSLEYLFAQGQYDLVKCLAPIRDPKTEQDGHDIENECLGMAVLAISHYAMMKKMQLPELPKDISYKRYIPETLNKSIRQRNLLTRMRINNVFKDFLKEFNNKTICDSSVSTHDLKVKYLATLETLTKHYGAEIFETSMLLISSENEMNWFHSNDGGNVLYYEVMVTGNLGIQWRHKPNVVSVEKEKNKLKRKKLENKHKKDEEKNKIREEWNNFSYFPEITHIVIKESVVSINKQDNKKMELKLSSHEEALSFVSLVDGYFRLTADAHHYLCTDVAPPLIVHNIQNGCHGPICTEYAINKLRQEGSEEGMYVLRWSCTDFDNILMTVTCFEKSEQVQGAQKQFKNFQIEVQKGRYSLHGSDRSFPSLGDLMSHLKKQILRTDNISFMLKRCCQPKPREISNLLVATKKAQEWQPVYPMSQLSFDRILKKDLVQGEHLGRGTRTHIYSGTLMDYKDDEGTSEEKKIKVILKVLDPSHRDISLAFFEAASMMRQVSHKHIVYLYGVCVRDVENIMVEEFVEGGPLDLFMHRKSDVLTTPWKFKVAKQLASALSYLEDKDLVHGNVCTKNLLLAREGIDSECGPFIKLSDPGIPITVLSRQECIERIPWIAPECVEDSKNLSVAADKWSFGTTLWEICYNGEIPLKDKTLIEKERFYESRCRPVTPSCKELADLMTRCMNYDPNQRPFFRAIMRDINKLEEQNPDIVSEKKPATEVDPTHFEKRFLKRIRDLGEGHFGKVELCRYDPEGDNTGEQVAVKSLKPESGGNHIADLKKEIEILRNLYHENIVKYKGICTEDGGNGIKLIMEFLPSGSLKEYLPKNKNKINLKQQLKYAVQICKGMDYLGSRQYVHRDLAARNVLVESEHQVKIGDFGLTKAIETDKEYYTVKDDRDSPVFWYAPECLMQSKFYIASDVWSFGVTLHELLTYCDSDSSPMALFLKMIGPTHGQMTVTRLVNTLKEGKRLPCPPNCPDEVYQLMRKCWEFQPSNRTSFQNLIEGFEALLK

Chain of Receptor-type tyrosine-protein kinase FLT3 (P36888 whole entry): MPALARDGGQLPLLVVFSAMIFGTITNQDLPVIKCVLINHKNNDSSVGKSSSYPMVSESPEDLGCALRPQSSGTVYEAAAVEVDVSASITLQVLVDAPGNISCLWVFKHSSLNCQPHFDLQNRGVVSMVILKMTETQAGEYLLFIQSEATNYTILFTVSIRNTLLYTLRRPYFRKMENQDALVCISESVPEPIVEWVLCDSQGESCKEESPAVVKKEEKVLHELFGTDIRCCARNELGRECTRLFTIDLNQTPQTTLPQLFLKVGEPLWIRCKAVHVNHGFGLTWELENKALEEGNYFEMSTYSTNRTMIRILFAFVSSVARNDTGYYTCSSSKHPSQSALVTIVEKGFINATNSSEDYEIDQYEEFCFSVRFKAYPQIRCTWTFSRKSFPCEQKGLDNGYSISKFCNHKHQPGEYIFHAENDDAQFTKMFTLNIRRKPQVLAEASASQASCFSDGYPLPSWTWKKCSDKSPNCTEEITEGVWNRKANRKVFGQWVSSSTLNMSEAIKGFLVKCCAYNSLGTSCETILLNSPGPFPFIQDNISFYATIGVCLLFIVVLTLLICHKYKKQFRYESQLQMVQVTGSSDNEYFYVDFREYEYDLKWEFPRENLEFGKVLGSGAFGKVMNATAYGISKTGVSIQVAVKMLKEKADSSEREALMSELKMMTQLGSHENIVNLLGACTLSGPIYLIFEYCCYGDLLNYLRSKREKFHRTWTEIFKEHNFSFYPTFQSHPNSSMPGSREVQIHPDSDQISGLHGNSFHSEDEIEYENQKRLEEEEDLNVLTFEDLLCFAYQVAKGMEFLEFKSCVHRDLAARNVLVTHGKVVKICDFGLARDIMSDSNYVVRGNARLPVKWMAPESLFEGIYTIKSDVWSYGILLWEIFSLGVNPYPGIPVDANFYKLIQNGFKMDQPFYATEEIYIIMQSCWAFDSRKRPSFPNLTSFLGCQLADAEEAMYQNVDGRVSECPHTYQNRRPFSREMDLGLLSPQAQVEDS
Chain of Tyrosine-protein kinase JAK2 (O60674 whole entry): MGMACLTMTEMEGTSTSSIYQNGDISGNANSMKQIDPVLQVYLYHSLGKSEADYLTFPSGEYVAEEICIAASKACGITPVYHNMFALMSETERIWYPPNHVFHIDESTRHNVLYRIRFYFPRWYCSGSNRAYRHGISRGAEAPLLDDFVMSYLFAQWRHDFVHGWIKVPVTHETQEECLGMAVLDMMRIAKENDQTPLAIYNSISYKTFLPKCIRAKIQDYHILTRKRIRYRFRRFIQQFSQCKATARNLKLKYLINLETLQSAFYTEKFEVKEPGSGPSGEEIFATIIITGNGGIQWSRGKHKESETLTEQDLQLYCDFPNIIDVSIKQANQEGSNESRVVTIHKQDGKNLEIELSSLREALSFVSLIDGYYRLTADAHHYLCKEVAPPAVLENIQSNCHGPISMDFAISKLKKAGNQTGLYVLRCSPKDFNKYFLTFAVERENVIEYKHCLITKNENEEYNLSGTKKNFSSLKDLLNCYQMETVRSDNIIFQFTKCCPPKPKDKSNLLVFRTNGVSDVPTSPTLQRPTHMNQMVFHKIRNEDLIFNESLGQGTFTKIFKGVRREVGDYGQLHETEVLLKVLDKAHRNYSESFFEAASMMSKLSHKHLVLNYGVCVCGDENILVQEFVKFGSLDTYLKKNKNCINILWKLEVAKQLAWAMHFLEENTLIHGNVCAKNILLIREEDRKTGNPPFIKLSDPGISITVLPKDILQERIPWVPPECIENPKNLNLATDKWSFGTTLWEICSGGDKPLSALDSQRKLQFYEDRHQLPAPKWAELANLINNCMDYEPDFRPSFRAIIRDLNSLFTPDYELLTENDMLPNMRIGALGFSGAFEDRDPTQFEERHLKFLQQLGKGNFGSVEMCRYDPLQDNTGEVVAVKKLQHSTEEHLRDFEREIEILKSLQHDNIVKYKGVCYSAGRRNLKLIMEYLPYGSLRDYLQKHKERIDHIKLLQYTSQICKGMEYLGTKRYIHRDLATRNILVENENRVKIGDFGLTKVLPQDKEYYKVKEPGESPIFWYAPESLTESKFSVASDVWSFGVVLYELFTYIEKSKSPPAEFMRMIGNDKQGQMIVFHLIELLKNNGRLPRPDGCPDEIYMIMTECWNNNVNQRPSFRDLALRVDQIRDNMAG

With `CN(C(=O)c1cnn2cccnc12)c1cc2c(cc1N1CCOCC1)C(=O)N(C[C@@H](F)C(C)(C)O)C2` as the compound, how does the EC50 [1] read?
Its EC50 is 3.6 µM (not active).

What about the EC50 [2] of the same compound?
Its EC50 is > 50 µM (not active).

What about the EC50 [3] of the same compound?
Its EC50 is > 50 µM (not active).
